The results in this text go back to patent US10358442B2, “2-homopiperazine-1-yl-4H-1,3-benzothiazine-4-one derivatives and process for the preparation of 2-(homo)piperazine 1,3-benzothiazine-4-one hydrochlorides” (Ecole Polytechnique Federale De Lausanne (EPFL), priority 2015, dated 2019).

One data set relates to M. tuberculosis H37Rv. In words: resazurin reduction assay (MIC99), M. tuberculosis H37Rv. In kind it is cell-based. To be noted: Mycobacterium tuberculosis, BTZ-susceptible wild type strain. How it is done: Activity against M. tuberculosis strains H37Rv and NBT1 was determined by the resazurin reduction assay (MIC99). The method is described in detail in: J. C. Palomino, A. Martin, M. Camacho, H. Guerra, J. Swings, F. Portaels, Antimicrob. Agents Chemother., 2002, 46, 2720-2722.

≈ marks a conversion by molar mass, not a printed value.

In the data set on M. tuberculosis H37Rv, `O=c1nc(N2CCN(CC3CCCCC3)CC2)sc2c([N+](=O)[O-])cc(C(F)(F)F)cc12` [PBTZ169, 2-[4-(cyclohexylmethyl)piperazin-1-yl]-8-nitro-6-(trifluoromethyl)-4H-1,3-benzothiazin-4-one, reference compound] came in with an MIC99 of 0.3 ng/mL (≈ 0.657 nM).

Regarding `Cl.O=c1nc(N2CCCN(CCc3ccccc3)CC2)sc2c([N+](=O)[O-])cc(C(F)(F)F)cc12` [Compound 7, 8-Nitro-2-[4-(2-phenylethyl)-1,4-diazepan-1-yl]-6-(trifluoromethyl)-4H-1,3-benzothiazin-4-one Hydrochloride], in the data set on M. tuberculosis H37Rv, the MIC99 was 0.8 ng/mL.

For `Cl.O=c1nc(N2CCCN(CC3CCCCC3)CC2)sc2c([N+](=O)[O-])cc(C(F)(F)F)cc12` [Compound 1, 2-[4-(Cyclohexylmethyl)-1,4-diazepan-1-yl]-8-nitro-6-(trifluoromethyl)-4H-1,3-benzothiazin-4-one Hydrochloride], the melting point is 269 to 271 °C. The MIC99 in the data set with M. tuberculosis H37Rv is 1 ng/mL.

`Cl.O=c1nc(N2CCCN(CCC3CCCCC3)CC2)sc2c([N+](=O)[O-])cc(C(F)(F)F)cc12` [Compound 4, 2-[4-(2-Cyclohexylethyl)-1,4-diazepan-1-yl]-8-nitro-6-(trifluoromethyl)-4H-1,3-benzothiazin-4-one Hydrochloride] had a melting point of 274 to 277 °C. For the same compound, the MIC99 with M. tuberculosis H37Rv came to 0.2 ng/mL.

Regarding `Cl.O=c1nc(N2CCCN(C3CCCCC3)CC2)sc2c([N+](=O)[O-])cc(C(F)(F)F)cc12` [Compound 6, 2-(4-Cyclohexyl-1,4-diazepan-1-yl)-8-nitro-6-(trifluoromethyl)-4H-1,3-benzothiazin-4-one Hydrochloride], in the data set with M. tuberculosis H37Rv, the MIC99 worked out at 1 ng/mL.

In turn, `Cl.O=c1nc(N2CCCN(CCc3ccccc3)CC2)sc2c([N+](=O)[O-])cc(C(F)(F)F)cc12` (hydrate or solvate) [Compound 7, 8-Nitro-2-[4-(2-phenylethyl)-1,4-diazepan-1-yl]-6-(trifluoromethyl)-4H-1,3-benzothiazin-4-one Hydrochloride] yielded a melting point of 264 to 267 °C.

For the compound `Cl.O=c1nc(N2CCN(CCC3CCCCC3)CC2)sc2c([N+](=O)[O-])cc(C(F)(F)F)cc12` (hydrate or solvate), the melting point was in the range of 271 to 273 °C.

In turn, `CCCCN1CCN(c2nc(=O)c3cc(C(F)(F)F)cc([N+](=O)[O-])c3s2)CC1.Cl` (hydrate or solvate) came in with a melting point of 239 to 241 °C.

Compound `CCCCCN1CCCN(c2nc(=O)c3cc(C(F)(F)F)cc([N+](=O)[O-])c3s2)CC1.Cl` [Compound 2, 8-Nitro-2-(4-pentyl-1,4-diazepan-1-yl)-6-(trifluoromethyl)-4H-1,3-benzothiazin-4-one Hydrochloride] registered a melting point of 246 to 248 °C. The compound also displayed an MIC99 with M. tuberculosis H37Rv of 0.2 ng/mL.

The compound `Cl.O=c1nc(N2CCCN(C3CCCCC3)CC2)sc2c([N+](=O)[O-])cc(C(F)(F)F)cc12` (hydrate or solvate) [Compound 6, 2-(4-Cyclohexyl-1,4-diazepan-1-yl)-8-nitro-6-(trifluoromethyl)-4H-1,3-benzothiazin-4-one Hydrochloride] had a melting point of 290 to 293 °C.

In turn, `CCCCCCN1CCCN(c2nc(=O)c3cc(C(F)(F)F)cc([N+](=O)[O-])c3s2)CC1.Cl` [Compound 3, 2-(4-Hexyl-1,4-diazepan-1-yl)-8-nitro-6-(trifluoromethyl)-4H-1,3-benzothiazin-4-one Hydrochloride] displayed a melting point of 249 to 251 °C. Moreover, in the data set with M. tuberculosis H37Rv, the MIC99 was 0.2 ng/mL.

For the compound `Cl.O=c1nc(N2CCN(CCCCOc3ccccc3)CC2)sc2c([N+](=O)[O-])cc(C(F)(F)F)cc12`, the melting point lay within 256 to 258 °C.

For the compound `CCCCCCCN1CCN(c2nc(=O)c3cc(C(F)(F)F)cc([N+](=O)[O-])c3s2)CC1.Cl` (hydrate or solvate), the melting point lay within 254 to 256 °C.

`CCCCCCCN1CCCN(c2nc(=O)c3cc(C(F)(F)F)cc([N+](=O)[O-])c3s2)CC1.Cl` [Compound 5, 2-(4-Heptyl-1,4-diazepan-1-yl)-8-nitro-6-(trifluoromethyl)-4H-1,3-benzothiazin-4-one Hydrochloride] had a melting point of 256 to 258 °C. In the data set on M. tuberculosis H37Rv, this compound gave an MIC99 of 0.3 ng/mL.
